Holding throughout (format): binding, mouse
The test system of one assay is IgM (G 19-2). In words: inhibition ELISA: oligosaccharide inhibits fixation of IgM G19-2 on LPS 3a. The conditions noted are these: concentration of oligosaccharide giving 50% inhibition of fixation of the mAb on LPS 3a (S. flexneri 3a), inhibition ELISA. As to the method: Protocol 2) Ten Balb/C mice and four BP2 mice were immunized by i.p. injection with virulent live bacteria of the strain S. flexneri 3a, every three weeks, using 2×10^6 bacteria for the first 2 immunizations and 5×10^6 for the next 4. As the anti-LPS 3a antibody response was too weak for performing cellular fusion, an additional series of 4 injections was carried out. Two mAbs of type IgM, G19-2 and L18-9, were obtained.
(§1) The oligosaccharide determinants recognized by the four mAbs obtained were characterized by measuring, by inhibition ELISA, the interaction of the various oligosaccharides synthesized with these mAbs.
(§2) 1) First, a standard curve OD=f(concentration of the mAb) was established for each antibody.
(§3) For this, purified LPS from S. flexneri 3a was fixed in the wells of ELISA plates (96-well plate), at a concentration of 25 μg/ml in a carbonate buffer pH 9.6, at 4° C., overnight.
(§4) After washing the wells with a solution of PBS/ Tween 20 (0.05%) 1% and a stage of saturation with PBS/BSA 1% for 30 minutes at 4° C., various concentrations of each mAb were incubated for 30 minutes at 4° C. After a washing stage, a secondary antibody coupled to alkaline phosphatase and specific to the mouse IgGs or IgMs was added at a dilution of 1/5000 (Sigma-Aldrich) for 1 h at 37° C. After washing, the enzymatic reaction was carried out with the specific substrate of alkaline phosphatase (12 mg of p-nitrophenylphosphate in 1.2 ml of Tris-HCl buffer 1M (pH 8.8) and 10.8 ml of 5M NaCl). Once the color reaction had developed, the plates were read at 405 nm (Dynatech MR 4000 plate reader). The standard curve OD =f(Ab concentration) was refined with the equation Y=aX2+bX+c, where Y corresponds to the OD and X to the antibody concentration. A correlation factor (r2) of 0.99 was generally obtained.
(§5) 2) The concentration of oligosaccharide capable of inhibiting 50% of the fixation of the mAb on LPS 3a was then determined as follows.
(§6) Each mAb was used at a given concentration, defined as the first concentration tested giving a maximum OD on the standard curve (the first point at the start of the plateau of the curve). Various concentrations of each of the oligosaccharides to be tested were then incubated separately with the mAb at constant concentration, overnight at 4° C., in 1% PBS-BSA buffer. Measurement of the free antibody concentration was carried out as stated above, after incubation of the mAb/oligosaccharide mixtures at 4° C. for 30 minutes on plates covered with LPS 3a and using the standard curve obtained in parallel on the same plate. For each mAb and each oligosaccharide, a value called IC50 was then calculated, corresponding to the concentration of oligosaccharide permitting 50% inhibition of the fixation of the mAb on LPS 3a.
In general terms: ELISA stands for enzyme-linked immunosorbent assay.

The next assay has as its system mIgG C7-37. Description: inhibition ELISA: oligosaccharide inhibits fixation of mIgG C7-37 on LPS 3a. The conditions noted are these: concentration of oligosaccharide giving 50% inhibition of fixation of the mAb on LPS 3a (S. flexneri 3a). As to the method:
as §1, §2, §3, §4, §5, §6

The test system of a further assay is mIgG G7-12. In words: inhibition ELISA: oligosaccharide inhibits fixation of mIgG G7-12 on LPS 3a. The conditions noted are these: concentration of oligosaccharide giving 50% inhibition of fixation of the mAb on LPS 3a (S. flexneri 3a). Here is the method: as §1, §2, §3, §4, §5, §6

The IC50 is the concentration at which inhibition is half-maximal. A low value points to inhibition by little substance.

Regarding `CCCO[C@@H]1O[C@H](CO)[C@@H](O)[C@H](O[C@@H]2O[C@@H](C)[C@H](O)[C@@H](O[C@@H]3O[C@@H](C)[C@H](O)[C@@H](O)[C@H]3O[C@@H]3O[C@@H](C)[C@H](O)[C@@H](O[C@H]4O[C@H](CO)[C@@H](O)[C@H](O)[C@H]4O)[C@H]3O)[C@H]2O)[C@H]1NC(C)=O` [EABCD-OPr, Propyl α-D-glucopyranosyl-(1→3)-α-L-rhamnopyranosyl-(1→2)-α-L-rhamnopyranosyl-(1→3)-α-L-rhamnopyranosyl-(1→3)-2-acetamido-2-deoxy-β-D-glucopyranoside], the IC50 in the assay on IgM (G 19-2) is over 2500 µM; in the assay with mIgG C7-37, over 1000 µM; in the assay on mIgG G7-12 it was over 2500 µM.

As to “Propyl (2/3-O-acetyl-α-L-rhamnopyranosyl)-(1→3)-(2-acetamido-2-deoxy-β-D-glucopyranosyl)-(1→2)-(α-D-glucopyranosyl-(1→3)-α-L-rhamnopyranoside [C(2-OAc)DEA-OPr]”, the IC50 with IgM (G 19-2) was over 2500 µM; with mIgG C7-37, over 5000 µM; in the assay on mIgG G7-12 it was over 2500 µM.

Source of the values: patent US10087242B2 (INSTITUT PASTEUR, priority 2007, dated 2018).
